Measured values from PMC6010098, “Synthesis, antitumour and antioxidant activities of novel α,β-unsaturated ketones and related heterocyclic analogues: EGFR inhibition and molecular modelling study” (Journal of Enzyme Inhibition and Medicinal Chemistry, 2018).
Each block holds one molecule with its values, some of them ahead of it.

Tests used:
[1] = ABTS radical cation scavenging (antioxidant) assay; settings: 20 µl of 1 mg/ml test sample (L-ascorbic acid 20 µl, 2 mM)
Procedure: The absorbance (Acontrol) of a green-blue solution (ABTS^+ radical solution) resulted from a mixture of ABTS and manganese dioxide (MnO2) and was recorded at λmax 734 nm, according to the reported procedure[64]^,[65]. The absorbance (Atest) was measured upon the addition of 20 µl of 1 mg/ml solution of the test sample in spectroscopic grade methanol/phosphate buffer (1:1 v/v) to the ABTS solution. The decrease in absorbance is expressed as % inhibition, which can be calculated from the following equation: % inhibition = Acontrol-Atest/Acontrol×100.
L-Ascorbic acid 20 µl (2 mM) solution was used as standard antioxidant (positive control). A blank sample was run using only methanol/phosphate buffer (1:1), while the negative control was run with ABTS and the methanol/phosphate buffer.
The assay is based on measuring the ability of the tested compounds to scavenge the long-life radical cation of ABTS[22]^,[43]^,[64]^,[65].

[2] = system: HepG2 cells; experiment: MTT antitumour assay, HepG2; type: cell-based; settings: human hepato-cellular carcinoma cell line, mean ± SD, n = 3
Procedure: (§1) The evaluation of the antitumour activity was performed using tetrazolium salt MTT (3-(4,5-dimethyl-2-thiazolyl)-2,5-diphenyl-2H-tetrazolium bromide) assay as reported[62]^,[63].
(§2) The designed compounds were evaluated for their in vitro antitumour effects via the standard 3-(4,5-dimethylthiazol-2-yl)-2,5-diphenyltetrazolium bromide (MTT) method against a panel of four human tumour cell lines; namely, hepatocellular carcinoma cell line (HepG2), breast cancer cell line (MCF-7), human cervical cancer cell line (HeLa), and prostate cancer cell line (PC-3)[62]^,[63]^,[72]. The antitumour activities of the designed compounds 4–12, along with that of the reference drugs 5-FU and afatinib are shown in Table 1.

[3] = system: MCF-7 cells; experiment: MTT antitumour assay, MCF-7; type: cell-based; settings: MCF7, human breast adenocarcinoma cell line, mean ± SD, n = 3
Procedure: as §1, §2

[4] = system: HepG2, MCF-7, HeLa, and PC-3 cancer cell lines; experiment: MTT antitumour assay, range over the four cell lines; type: cell-based, human; settings: Homo sapiens, range over HepG2, MCF-7, HeLa, PC-3 (and over the compounds named), read-out: IC50 range against the tested cell lines
Procedure: as §1, §2

[5] = system: PC-3 cells; experiment: MTT antitumour assay, PC-3; type: cell-based; settings: PC-3; MTT; human prostate cancer cell line; mean ± SD, n = 3
Procedure: as §1, §2

[6] = system: HeLa cells; experiment: MTT antitumour assay, HeLa; type: cell-based; settings: human cervical epithelioid carcinoma cell line, mean ± SD, n = 3
Procedure: as §1
as §2, with “(PC-3)[62]^,[63]^,[72].” for “(PC-3)[62]^,[63]^,[72]. The antitumour activities of the designed compounds 4–12, along with that of the reference drugs 5-FU and afatinib are shown in Table 1.”

[7] = target: EGFR kinase (Homo sapiens, UniProt P00533); experiment: ELISA-based EGFR kinase inhibition assay; settings: for Conc. (Average), ELISA read-out: duplicate wells, standards in ng/ml, cont 134.9
Chain of EGFR kinase (P00533 25-1210): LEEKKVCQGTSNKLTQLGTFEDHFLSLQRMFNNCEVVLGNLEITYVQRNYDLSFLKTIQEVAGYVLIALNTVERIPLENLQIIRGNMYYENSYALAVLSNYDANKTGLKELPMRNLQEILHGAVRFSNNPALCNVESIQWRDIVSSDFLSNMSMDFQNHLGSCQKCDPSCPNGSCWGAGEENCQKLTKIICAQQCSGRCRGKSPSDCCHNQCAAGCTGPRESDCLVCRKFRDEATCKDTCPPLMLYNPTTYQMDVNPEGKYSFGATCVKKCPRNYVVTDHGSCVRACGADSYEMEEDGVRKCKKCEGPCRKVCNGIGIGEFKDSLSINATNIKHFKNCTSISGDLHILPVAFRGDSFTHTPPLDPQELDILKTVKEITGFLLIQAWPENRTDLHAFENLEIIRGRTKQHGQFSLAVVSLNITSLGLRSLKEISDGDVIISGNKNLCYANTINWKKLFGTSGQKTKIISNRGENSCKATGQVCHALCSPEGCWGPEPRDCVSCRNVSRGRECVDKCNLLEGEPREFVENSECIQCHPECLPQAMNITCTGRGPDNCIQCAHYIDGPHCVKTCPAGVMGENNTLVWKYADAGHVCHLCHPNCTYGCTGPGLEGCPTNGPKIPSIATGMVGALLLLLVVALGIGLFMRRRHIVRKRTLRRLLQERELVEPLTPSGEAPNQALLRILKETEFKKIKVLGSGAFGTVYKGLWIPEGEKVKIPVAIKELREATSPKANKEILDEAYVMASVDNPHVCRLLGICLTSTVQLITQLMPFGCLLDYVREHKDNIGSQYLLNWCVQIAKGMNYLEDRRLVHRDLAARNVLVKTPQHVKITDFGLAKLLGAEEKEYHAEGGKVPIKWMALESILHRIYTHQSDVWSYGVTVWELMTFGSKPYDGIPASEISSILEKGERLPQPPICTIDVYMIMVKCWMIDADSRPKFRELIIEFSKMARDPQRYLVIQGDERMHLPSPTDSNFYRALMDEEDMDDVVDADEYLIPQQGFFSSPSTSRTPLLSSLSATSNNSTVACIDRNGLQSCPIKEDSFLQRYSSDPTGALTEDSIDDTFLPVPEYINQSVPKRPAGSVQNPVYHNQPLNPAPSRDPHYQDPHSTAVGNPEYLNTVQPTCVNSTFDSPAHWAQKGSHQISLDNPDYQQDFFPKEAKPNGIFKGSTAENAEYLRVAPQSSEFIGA

SMILES: CC(=O)C=Cc1ccc(OC2CCCC2)cc1 [4a, 4-(4-(Cyclopentyloxy)phenyl)but-3-en-2-one]
%Inhibition of the ABTS radical cation [1]: 52.0%
IC50 [2]: 27.3 ± 1.96 µM
IC50 [3]: 40.9 ± 2.79 µM
IC50 [4]: 21.8 to 40.9 µM
IC50 [5]: 21.8 ± 1.68 µM
IC50 [6]: 25.7 ± 1.97 µM

SMILES: O=C(O)c1cc(C=Cc2ccc(OC3CCCC3)cc2)nc2ccc(Br)cc12 [12a, 6-Bromo-2-(4-(cyclopentyloxy)styryl)quinoline-4-carboxylicacid]
IC50 [2]: 85.4 ± 5.31 µM
IC50 [3]: 87.1 ± 5.24 µM
melting point: > 300 °C
IC50 [5]: > 100 µM
IC50 [6]: 89.4 ± 4.89 µM

SMILES: CN1CCC(=O)C(=Cc2ccc(OC3CCCC3)cc2)C1 [6a, 3-(4-(Cyclopentyloxy)benzylidene)-1-methylpiperidin-4-one]
%Inhibition of the ABTS radical cation [1]: 54.3%
IC50 [2]: 15.9 ± 1.02 µM
IC50 [7]: 4.66 µM
% Inhibition EGFR ([7]; 0.15 μM): 6.67%
% Inhibition EGFR ([7]; 0.31 μM): 18.16%
% Inhibition EGFR ([7]; 0.625 μM): 26.84%
% Inhibition EGFR ([7]; 1.25 μM): 34.55%
% Inhibition EGFR ([7]; 2.5 μM): 44.35%
% Inhibition EGFR ([7]; 5.0 μM): 50.34%
% Inhibition EGFR ([7]; 10.0 μM): 57.65%
inhibition at 0.15 µM ([7]; read-out: % Inhibition EGFR, 0.15 μM): 6.67%
inhibition at 0.31 µM ([7]; read-out: % Inhibition EGFR, 0.31 μM): 18.2%
inhibition at 0.625 µM ([7]; read-out: % Inhibition EGFR, 0.625 μM): 26.8%
inhibition at 1.25 µM ([7]; read-out: % Inhibition EGFR, 1.25 μM): 34.6%
inhibition at 2.5 µM ([7]; read-out: % Inhibition EGFR, 2.5 μM): 44.4%
inhibition at 5 µM ([7]; read-out: % Inhibition EGFR, 5.0 μM): 50.3%
inhibition at 10 µM ([7]; read-out: % Inhibition EGFR, 10.0 μM): 57.7%
Conc. (Average), ELISA read-out ([7]; sample at 0.15uM): 125.9
Conc. (Average), ELISA read-out ([7]; sample at 0.31uM): 110.4
Conc. (Average), ELISA read-out ([7]; sample at 0.62uM): 98.68
Conc. (Average), ELISA read-out ([7]; sample at 1.25uM): 88.29
Conc. (Average), ELISA read-out ([7]; sample at 2.5uM): 75.07
Conc. (Average), ELISA read-out ([7]; sample at 5uM): 66.98
Conc. (Average), ELISA read-out ([7]; sample at 10uM): 57.13
IC50 [3]: 18.1 ± 1.58 µM
IC50 [4]: 5.5 to 18.1 µM
IC50 [5]: 10.5 ± 0.97 µM
IC50 [6]: 9.4 ± 0.98 µM

SMILES: Cc1ccc(-c2cc(-c3ccc(OC4CCCC4)cc3)c(C#N)c(N)n2)cc1 [compound 11, 2-amino-4-(4-(cyclopentyloxy)phenyl)-6-(4-methylphenyl)nicotinonitrile]
IC50 [2]: 92.9 ± 5.82 µM
IC50 [3]: 97.3 ± 5.51 µM
melting point: 272 to 273 °C
IC50 [5]: 87.7 ± 5.41 µM
IC50 [6]: 62.4 ± 3.8 µM

Second part, led by results:

IC50 [2]: 71.3 ± 4.53 µM
IC50 [3]: 64.7 ± 4.27 µM
IC50 [5]: 26.9 ± 1.89 µM
IC50 [6]: 37.5 ± 2.81 µM
SMILES: O=C1CCCCCC1=Cc1ccc(OC2CCCC2)cc1 [5c, 2-(4-(Cyclopentyloxy)benzylidene)cycloheptanone]
%Inhibition of the ABTS radical cation [1]: 51.0%

IC50 [2]: > 100 µM
IC50 [3]: > 100 µM
IC50 [5]: 94.1 ± 5.82 µM
IC50 [6]: 77.8 ± 4.41 µM
SMILES: O=C1CCCC1=Cc1ccc(OC2CCCC2)cc1 [5a, 2-(4-(Cyclopentyloxy)benzylidene)cyclopentanone]

IC50 [2]: 55.4 ± 3.95 µM
IC50 [3]: 49.4 ± 3.16 µM
IC50 [5]: 71.1 ± 4.93 µM
IC50 [6]: 30.1 ± 2.24 µM
SMILES: O=C1CCCCC1=Cc1ccc(OC2CCCC2)cc1 [5b, 2-(4-(Cyclopentyloxy)benzylidene)cyclohexanone]
%Inhibition of the ABTS radical cation [1]: 51.4%
